We go through two sequences from patent publication US7704701B2, “Diagnosis of prostate cancer with SPAS-1 cancer antigen” (The Regents of the University of California, priority 2000, dated 2010).

The subject of test [1] is CD8+ T cells. Description: IFN-γ production (ELISA) by in vitro primed T cell cultures in response to peptide pulsed onto A221 cells. To be noted: HLA-A2+ healthy donors. The test is classed as cell-based, human. The source says:
FIG. 21: Strategy for the generation of human cytotoxic T lymphocytes (CTLs) specific for candidate human SPAS-1 peptides: In order to determine whether CD8+ T cells specific for human SPAS-1 peptides are present in the periphery of healthy individuals we used an in vitro priming strategy. Briefly, immature Myeloid Dendritic Cells (mDCs) were generated from culturing monocytes isolated from Peripheral Blood Mononuclear Cells (PBMCs) of a healthy HLA-A2+ donor for 5 days in GM-CSF and IL-4.
Following another in vitro restimulation, T cell cultures were assessed for their capacity to produce IFN-γ in response to the corresponding peptide, pulsed onto the HLA-A2 expressing cell line A221. IFN-γ was assessed by ELISA on the cell supernatants in triplicate wells.
In order to determine whether CD8+ T cells specific for human SPAS-1 peptides are present in the periphery of healthy individuals we used an in vitro priming strategy. Briefly, immature Myeloid Dendritic Cells (mDCs) were generated from culturing monocytes isolated from Peripheral Blood Mononuclear Cells (PBMCs) of a healthy HLA-A2+ donor for 5 days in GM-CSF and IL-4.

In test [2] the test system is CD8+ T cells. Nature of the test: IFN-γ production (ELISA) by FL-9-primed CD8+ T cells in response to titrated peptide pulsed onto THP-1 cells. The test is classed as cell-based, human. Particulars: fourteen days after first stimulation. On the procedure:
FIG. 24. […] A) Monocyte-derived DCs from HLA-A2+ healthy donors were pulsed with HuSPAS-1 peptide 4 (FL-9) and then incubated with autologous PBMC. Following another in vitro restimulation, T cell cultures were then assessed for their capacity to produce IFN-γ in response to titrated doses of peptide 4 (FL-9), pulsed onto the HLA-A2 expressing cell line THP-1. IFN-γ was assessed by ELISA on the cell supernatants in triplicate wells. […] (100,000 CD8+ T cells/well and 50,000 THP-1 cells/well). […] Responsiveness of the FL-9-reactive CD8+ T cell line was assessed by co-culturing 100,000 CD8+ T cells with titrated numbers of infected THP-1 cells.
Monocyte-derived DCs from HLA-A2+ healthy donors were pulsed with HuSPAS-1 peptide 4 (FL-9) and then incubated with autologous PBMC. Following another in vitro restimulation, T cell cultures were then assessed for their capacity to produce IFN-γ in response to titrated doses of peptide 4 (FL-9), pulsed onto the HLA-A2 expressing cell line THP-1. IFN-γ was assessed by ELISA on the cell supernatants in triplicate wells. […] Responsiveness of the FL-9-reactive CD8+ T cell line was assessed by co-culturing 100,000 CD8+ T cells with titrated numbers of infected THP-1 cells.

Take FLTPLRNFL (H. sapiens) [P4]: in test [1], the “immunogenicity: IFN-γ production in response to the corresponding peptide” value was “Immunogenic”. Also, the “IFN-γ production in response to increasing doses of peptide” value in test [2] is “specifically produced IFN-γ”.
Take LLADELITV (H. sapiens) [P1]: the “IFN-γ production in response to increasing doses of peptide” value in test [2] is listed as “not”.
